“Also recorded” adds a separate entry of the source.

One experiment relates to SKOV3ip1 tumor cells. Briefly: SKOv3 induced orthotopic murine model. Conditions: 20-100 mg/kg i.p. or p.o. The class given is in vivo, athymic female mice. How it is done:
Dose-finding experiments initiated by injecting SKOV3ip1 (SKOV3ip1 cells were collected from cultures using either 0.25% trypsin-EDTA (Life Technologies) on the cell line) tumor cells i.p. (2.5×10^5) into athymic female mice. 19 days after tumor cell orthotopic inoculation and when i.p. tumors were palpable, then the mice randomized into 6 dosage groups: 0 mg (vehicle alone, group 1), 20 and 40 mg/kg (groups 2, 3) received 1H-Pyrrolo[2,3-b]pyridine compound i.p QD for 3 days (M/W/F), 60 and 80 mg/kg (groups 4, 5) received 1H-Pyrrolo[2,3-b]pyridine compound p.o BID for 3 days (M/W/F) and 100 mg/kg group received 1H-Pyrrolo[2,3-b]pyridine compound+Taxol p.o BID for 3 days (M/W/F). […] Additionally, we performed quantitative RT-PCR, Western blot, and immunocytology experiments to identify overexpression of SIK2 in control groups against treatment groups along with SIK2 inhibition of transcription factor CREB via phosphorylation of its cofactor TORC2/CRTC2 as a biological indicator of SIK2 kinase activity. Further characterized the effects of SIK2 kinase inhibition on tumor growth inhibition, examined the tumor nodule formation.

A further experiment relates to SKOv3 cells. Briefly: SKOv3 i.p. xenograft in nu/nu mice. As to conditions: derivatives 30, 60 mg/kg, taxol 10 mg/kg, FIG. 5a-c. The class given is in vivo. How it is done:
We examined the growth-inhibitory effect of 1H-Pyrrolo[2,3-b]pyridine derivatives in-vivo employing an i.p. xenograft model in which nu/nu mice were inoculated i.p. with sensitive cell line SKOv3 cells. One week after inoculation, mice were randomized into six treatment groups receiving vehicle, 1H-Pyrrolo[2,3-b]pyridine derivatives 30, 60 mg/kg, taxol 10 mg/kg and 1H-Pyrrolo[2,3-b]pyridine plus taxol. Drug treatment was well tolerated except i.p. treatment second group, with no apparent toxicity throughout the study. At the end of an experiment, all mice were sacrificed for tumor volume, weight and each mouse examined and recorded at autopsy.

For `CC(=O)O[C@H]1C(=O)[C@@]2(C)[C@H]([C@H](OC(=O)c3ccccc3)[C@]3(O)C[C@H](OC(=O)[C@H](O)[C@@H](NC(=O)c4ccccc4)c4ccccc4)C(C)=C1C3(C)C)[C@]1(OC(C)=O)CO[C@@H]1C[C@@H]2O` [taxol], the antitumor effect entry in the experiment with SKOV3ip1 tumor cells is listed as “significant antitumor effects”. Moreover, the “antitumor effect (tumor volume, weight, number)” value in the experiment on SKOv3 cells is “significant antitumor effects; also recorded: inhibited the abdominal tumor growth and tumor cell dissemination”.

The values are drawn from patent US9890153B2, “Substituted 1H-pyrrolo [2, 3-b] pyridine and 1H-pyrazolo [3, 4-b] pyridine derivatives as salt inducible kinase 2 (SIK2) inhibitors” (Arrien Pharmaceuticals LLC, priority 2012, dated 2018).
